Source: US10774069B2, “Crystalline forms of a lysyl oxidase-like 2 inhibitor and methods of making” (PHARMAKEA, INC., priority 2016, dated 2020)
“Also recorded” adds a separate entry of the source. Where a name gives a salt, the structure may show the parent alone. Read-outs that look alike come from different tables or passages of the source. Blank lines part the entries; values can stand above or below the compound they belong to.

Legend:
[1] = Method: After each addition of solvent, the system was shaken gently for 10 minutes at 50° C. and then allowed to stand at room temperature for 5 min before the addition of a new aliquot of solvent. After the assessment was completed, any suspensions obtained were matured and clear solutions were cooled at 5° C.
Supernatants from maturation were allowed to slowly evaporate at ambient conditions.

[2] = Solid form storage stability at elevated temperature/humidity; format: physicochemical
Method: All retrieved solids from the crystallisation attempts were stored at 40° C. and 75% RH.

[3] = as above; format: physicochemical; remark: listed apart in the source
[4] = physchem; conditions: 25 °C, water, thermodynamic from solid
[5] = Aqueous and organic solubility of Form 1 of Compound 2; format: physicochemical
[6] = Gravimetric Vapor Sorption (GVS); format: physicochemical; conditions: 0 to 90% RH
From the text: Gravimetric Vapor Sorption (GVS) isotherms were obtained using an SMS DVS Intrinsic moisture sorption analyser, controlled by DVS Intrinsic Control software v1.0.1.2 (or v 1.0.1.3), over a range of 0 to 90% relative humidity (RH).

[7] = biological target: T1, LOXL2 (Homo sapiens (Human), UniProt Q9Y4K0); experiment: In vitro assays, potency of enantiomers; format: biochemical
[8] = Preliminary free base solubility assessment of Compound I; format: physicochemical; conditions: organic solvent or mixture, thermodynamic from solid
Method: After each addition of solvent, the system was shaken at 50° C. for 10 min and then allowed to stand at room temperature for 5 min before the addition of a new aliquot of solvent.

[9] = Stability studies (accelerated and ICH); format: physicochemical
Method: The compounds were assayed according to appearance, purity, related Substances, chiral purity, moisture, DSC, and XRPD

[10] = Clear point / cloud point in IPA:water (Crystal 16); format: physicochemical; conditions: mixture of Forms 1 and 4
Method: The samples were then cooled from 70 back to −8° C. at the same rate. The clear point upon heating (at 100% transmission) and the cloud point upon re-cooling (<100% transmission) were recorded using the Crystal 16 instrument and the data is shown in Table 17. XRPD analysis was performed on all solids obtained post cooling.

[11] = Forced degradation study; format: physicochemical
[12] = biological target: T1, LOXL2; experiment: Human LOXL2 CCM Assay (Amplex Red amine oxidase activity); format: biochemical; conditions: concentrated conditioned media from CHO cells expressing human LOXL2; 2 h at 37° C.
Method: Human LOXL2/CHO and human LOX/HEK stable cell lines were cultured under normal growth conditions in 15 cm tissue culture plates until cells were ˜80% confluent. Cells were then washed with PBS before the addition of 25-30 mL serum-free media (Phenol red-free DMEM/F12 mix w/glutamax containing pen/strep, 10-100 μM CuCl2±0.1% BSA). Cells were incubated at 37° C., 5% CO2 in serum-free media for 40-48 hours before the conditioned media was removed and centrifuged at 2000 rpm for 5 min at 4° C. to pellet cells/debris. The media was concentrated 10-20× using 10-30 MWCO centriprep columns according to the manufacturer's instructions (EMD Millipore, Billerica, Mass.) before aliquoting and storing at −80° C.
LOXL2 amine oxidase activity was evaluated by measuring Amplex Red fluorescence using 10-20× concentrated conditioned media (non BSA-containing) from CHO cells stably expressing human LOXL2. […] After the 2 h incubation, 5 μL of 10 mM 1,5-Diaminopentane (DAP) diluted in Assay Buffer and 10 μL of Amplex Red Mix (8.5 μL Assay Buffer+0.5 μL of 10 mM Amplex Red+1 μL of 500 U/ml Horseradish Peroxidase) were added and the plate mixed and immediately placed on the FlexStation for fluorescence measurements. Fluorescence was read in kinetic mode every 2 min for 0.5-1 hour at excitation=544 and emission=590. The amine oxidase activity was calculated from the slope of the linear portion of the curve. […]

T1 sequence (Q9Y4K0 26-774): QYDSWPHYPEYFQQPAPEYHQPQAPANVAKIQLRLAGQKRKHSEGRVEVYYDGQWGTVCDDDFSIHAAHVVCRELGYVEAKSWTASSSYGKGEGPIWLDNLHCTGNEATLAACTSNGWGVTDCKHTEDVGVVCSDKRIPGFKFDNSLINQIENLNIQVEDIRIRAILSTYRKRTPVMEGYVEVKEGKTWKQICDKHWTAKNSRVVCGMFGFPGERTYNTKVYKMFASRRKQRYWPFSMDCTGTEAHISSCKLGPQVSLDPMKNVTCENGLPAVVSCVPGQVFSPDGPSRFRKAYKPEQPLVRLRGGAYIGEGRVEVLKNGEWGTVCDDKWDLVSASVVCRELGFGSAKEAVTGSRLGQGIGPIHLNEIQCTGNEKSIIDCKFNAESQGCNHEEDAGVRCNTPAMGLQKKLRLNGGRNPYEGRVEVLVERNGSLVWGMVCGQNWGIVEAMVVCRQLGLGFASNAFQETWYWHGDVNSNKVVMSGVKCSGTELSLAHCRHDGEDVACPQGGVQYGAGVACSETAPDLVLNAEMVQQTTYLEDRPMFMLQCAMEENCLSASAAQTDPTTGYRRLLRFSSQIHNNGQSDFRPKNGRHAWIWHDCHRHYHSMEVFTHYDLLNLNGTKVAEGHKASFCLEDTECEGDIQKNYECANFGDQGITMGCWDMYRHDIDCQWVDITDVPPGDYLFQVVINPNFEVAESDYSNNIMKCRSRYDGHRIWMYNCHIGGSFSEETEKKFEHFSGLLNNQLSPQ

Solubility in maturation solvents [1]: insoluble
Behaviour on storage ([2]; 40° C. and 75% RH, after 24 hours): deliquescing
Form change on storage ([2]; 40° C./75% RH for one week): transforms to Form 2
7 days storage @ 40° C./75% RH, appearance ([2]; 40° C./75% RH): Waxy/glassy solid +
7 days storage @ 40° C./75% RH, resulting XRPD form ([2]; 40° C./75% RH): particles - Form 2
solubility [4]: ≥ 1000 mg/mL
SMILES: Cl.NCc1cc(Oc2cccc(C(=O)N3C[C@@H](O)[C@H](F)C3)c2)nc(C(F)(F)F)c1 [Form 1 of Compound 1]
Hygroscopicity [3]: hygroscopic solid; also recorded: hygroscopic form

Form change after GVS and storage ([2]; after GVS analysis and 7 days at 40° C./75% RH): phase transformation towards Form 1
Form conversion in humidity ([2]; in humidity): converts to Form 1
Form change on storage ([3]; 7 days at 25° C./97% RH): change also occurs
SMILES: CS(=O)(=O)O.NCc1cc(Oc2cccc(C(=O)N3C[C@@H](O)[C@H](F)C3)c2)nc(C(F)(F)F)c1 [Form 2 of Compound 2]

7 days storage @ 40° C./75% RH, appearance ([2]; 40° C./75% RH): Waxy/glassy solid +
7 days storage @ 40° C./75% RH, resulting XRPD form ([2]; 40° C./75% RH): particles - Form 2
Physical change over time ([2]; over time): converts over time to a waxy solid
Behaviour on storage ([2]; storage conditions (40° C. and 75% RH) for 1 week): remained unchanged
Thermal stability [3]: thermally stable
SMILES: Cl.NCc1cc(Oc2cccc(C(=O)N3C[C@@H](O)[C@H](F)C3)c2)nc(C(F)(F)F)c1 [Form 2 of Compound 1]

solubility ([5]; aqueous medium, pH 2, aqueous buffer, read-out: Aqueous Solubility): > 107 mg/mL
solubility ([5]; aqueous medium, pH 7.4, aqueous buffer, read-out: Aqueous Solubility): > 107 mg/mL
solubility ([5]; aqueous medium, pH 10, aqueous buffer, read-out: Aqueous Solubility): > 85 mg/mL
solubility ([5]; ethanol, organic solvent or mixture, EtOH, read-out: Organic Solubility, Qualitative Solubility): ~15 mg/mL
solubility ([5]; ethanol/water (90:10), isopropanol/water (90:10), organic solvent or mixture, read-out: Organic Solubility, Qualitative Solubility): ~50 mg/mL
solubility ([5]; methanol, tetrahydrofuran/water (90:10), organic solvent or mixture, read-out: Organic Solubility, Qualitative Solubility): ~100 mg/mL
solubility ([5]; organic solvent or mixture, isopropyl acetate, isopropanol, methyl-ethyl ketone, acetone, ethanol, methyl-t-butyl ether, 1,4 dioxane, toluene, tetrahydrofuran, dichloromethane, acetonitrile, read-out: Organic Solubility, Qualitative Solubility): ≤ 10 mg/mL
solubility ([5]; water, dimethyl sulfoxide, read-out: Organic Solubility, Qualitative Solubility): > 200 mg/mL
SMILES: CS(=O)(=O)O.NCc1cc(Oc2cccc(C(=O)N3C[C@@H](O)[C@H](F)C3)c2)nc(C(F)(F)F)c1 [Form 1 of Compound 2]
Polymorph stability on storage ([2]; 7 days at 40° C./75% RH and 25° C./97% RH): Form 1, which is stable for 7 days at 40° C./75% RH and 25° C./97%
XRPD after the GVS analysis [6]: X-ray powder diffraction (XRPD): Unchanged

Potency relative to the (S,S)-isomer [7]: less than 2 fold
solubility at 10 min ([8]; 2-Propanol): > 100 mg/mL
solubility at 10 min ([8]; Acetonitrile): > 100 mg/mL
solubility at 10 min ([8]; Dichloromethane): > 100 mg/mL
solubility at 10 min ([8]; Ethanol): > 100 mg/mL
solubility at 10 min ([8]; Ethyl Acetate): > 100 mg/mL
solubility at 10 min ([8]; Hexane): > 100 mg/mL
solubility at 10 min ([8]; Tetrahydrofuran): > 100 mg/mL
solubility at 10 min ([8]; Toluene, up to 50 vol): > 20 mg/mL
SMILES: NCc1cc(Oc2cccc(C(=O)N3C[C@@H](O)[C@H](F)C3)c2)nc(C(F)(F)F)c1 [Compound I, (R,R)-trans-(3-((4-(aminomethyl)-6-(trifluoromethyl)pyridin-2-yl)oxy)phenyl)(3-fluoro-4-hydroxypyrrolidin-1-yl)methanone]

solubility [1]: 200 − 100
Behaviour at 40° C./75% RH ([2]; 40° C./75% RH): deliquesces
7 days storage @ 40° C./75% RH, appearance ([2]; 40° C./75% RH): Glassy material
SMILES: Cl.NCc1cc(Oc2cccc(C(=O)N3C[C@@H](O)[C@H](F)C3)c2)nc(C(F)(F)F)c1 [Amorphous Compound 1]

XRPD change on heating and storage ([2]; heating to 130° C. and upon the storage conditions): changed to Form 1
SMILES: CS(=O)(=O)O.NCc1cc(Oc2cccc(C(=O)N3C[C@@H](O)[C@H](F)C3)c2)nc(C(F)(F)F)c1 [Form 3 of Compound 2]

All attributes tested (appearance, purity, related substances, chiral purity, moisture, DSC, XRPD) ([9]; 1 month data, long-term and accelerated conditions of 1-year and 2-year ICH studies): within limits
Clear Point Temperature ([10]; 5 mg in 1 mL IPA:water 95:5): 6.9 °C
Clear Point Temperature ([10]; 10 mg in 1 mL IPA:water 95:5): 20.3 °C
Clear Point Temperature ([10]; 20 mg in 1 mL IPA:water 95:5): 37.2 °C
Clear Point Temperature ([10]; 30 mg in 1 mL IPA:water 95:5): 48.5 °C
Cloud Point Temperature ([10]; 30 mg in 1 mL IPA:water 95:5): −7.8 °C
Clear Point Temperature ([10]; 40 mg in 1 mL IPA:water 95:5): 55.8 °C
Cloud Point Temperature ([10]; 40 mg in 1 mL IPA:water 95:5): −1.8 °C
Clear Point Temperature ([10]; 60 mg in 1 mL IPA:water 95:5): 64 °C
Cloud Point Temperature ([10]; 60 mg in 1 mL IPA:water 95:5): 14.5 °C
Clear Point Temperature ([10]; 70 mg in 1 mL IPA:water 95:5): 68.6 °C
Cloud Point Temperature ([10]; 70 mg in 1 mL IPA:water 95:5): 24.7 °C
Solid state stability, heat ([11]; solid, 100° C., 24 hours): stable
Solid state stability, light ([11]; solid, light max 365 nm, 24 hours): stable
Solution state stability, heat ([11]; solution, 50° C. for 24 hours): stable
SMILES: NCc1cc(Oc2cccc(C(=O)N3C[C@@H](O)[C@H](F)C3)c2)nc(C(F)(F)F)c1 [Compound 2, (R,R)-trans-(3-((4-(aminomethyl)-6-(trifluoromethyl)pyridin-2-yl)oxy)phenyl)(3-fluoro-4-hydroxypyrrolidin-1-yl)methanone, methanesulfonate salt]

IC50 [12]: < 0.3 µM
Changes in purity or absorption of moisture ([9]; 3 month accelerated condition (40° C./75% RH)): no significant changes
SMILES: Cl.NCc1cc(Oc2cccc(C(=O)N3C[C@@H](O)[C@H](F)C3)c2)nc(C(F)(F)F)c1 [Compound 1, (R,R)-trans-(3-((4-(aminomethyl)-6-(trifluoromethyl)pyridin-2-yl)oxy)phenyl)(3-fluoro-4-hydroxypyrrolidin-1-yl)methanone, hydrochloride salt]
